BindingDB's records for doi:10.1038/nchembio.421 (Novartis Institutes for BioMedical Research, 2010)
pIC50: −log10 of the molar value.

target: T1, Farnesyl pyrophosphate synthase (Homo sapiens, UniProt P14324); assay: Biophysical assay; conditions: pH 7.4; 23 °C
T1 sequence (P14324 whole entry): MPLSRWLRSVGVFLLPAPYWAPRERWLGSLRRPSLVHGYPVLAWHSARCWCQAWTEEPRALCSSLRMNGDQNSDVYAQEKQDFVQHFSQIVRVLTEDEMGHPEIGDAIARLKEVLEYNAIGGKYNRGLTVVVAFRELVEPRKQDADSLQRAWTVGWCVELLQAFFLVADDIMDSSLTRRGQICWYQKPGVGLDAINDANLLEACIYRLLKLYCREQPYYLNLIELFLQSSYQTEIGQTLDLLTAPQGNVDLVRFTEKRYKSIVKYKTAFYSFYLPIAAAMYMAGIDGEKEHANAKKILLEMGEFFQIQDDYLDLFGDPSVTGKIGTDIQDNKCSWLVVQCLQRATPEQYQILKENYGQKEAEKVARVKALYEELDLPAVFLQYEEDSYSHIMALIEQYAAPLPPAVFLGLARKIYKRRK
Description: A biophysical assay using NMR spectroscopy to identify fragments with higher binding affinity to human recombinant FPPS.

| pIC50 | Compound |
| --- | --- |
| 4.92 | O=C(O)Cc1sc2ccccc2c1Cl [2-(3-Chlorobenzo[b]thiophen-2-yl)acetic acid, 6] |
| < 3.30 | Cc1c(CC(=O)O)sc2ccc(Cl)cc12 [CID68686] |
| 4.10 | CC(C(=O)O)c1cc2c(Cl)cccc2s1 (centres undefined) [2-(4-Chlorobenzo[b]thiophen-2-yl)propanoic acid, 5] |

| Compound | pIC50 |
| --- | --- |
| O=C(O)c1cc(Cn2c(C(=O)O)cc3ccc4ccccc4c32)on1 [5-((2-Carboxy-1H-benzo[g]indol-1-yl)methyl)isoxazole-3-carboxylic acid, 12] | 7.10 |
